# Literature values, collected in PMC3925743 (Journal of controlled release : official journal of the …, 2013).
# Tested on: prostate cancer LNCaP cells
substance,measurement,value
protamine,delivery of siRNA into cells,cannot deliver siRNA
